According to patent US20100160442A1, “FORMULATIONS FOR CANCER TREATMENT” (priority 2006, published 2010):
Values after ≈ are worked out from the molar mass of the structure shown. Like-named read-outs stand apart in the source and are kept apart here.

Assay: Equilibrium solubility of 4-iodo-3-nitrobenzamide, overnight at 25° C., measured by HPLC
Format: physicochemical
Conditions: for solubility: thermodynamic from solid
Description: Excess 4-iodo-3-nitrobenzamide (“BA”) was equilibrated overnight (>16 hr) at 25° C. in purified water, 0.01M HCl (pH2), 0.01M NaOH ([…]), and 0.9% NaCl. Following dilution, the solubility of the drug was measured by HPLC.
Excess 4-iodo-3-nitrobenzamide was equilibrated overnight (>16 hr) at 25° C. in solutions of purified water containing various concentrations of cyclodextrins including hydroxypropyl-β-cyclodextrin (Kleptose® from Roquette) (HPBCD), sulfobutyl ether-β-cyclodextrin (Captisol® from Cyclex) (SBEBCD), and Hyroxypropyl-γ-cyclodextrin (Cavamax W8® from Wacker) (HPGCD). Following dilution, the solubility of the drug was measured by HPLC.
Excess 4-iodo-3-nitrobenzamide was equilibrated overnight (>16 hr) at 25° C. in purified water containing various concentrations of the surfactants: polyethylene sorbitan monooleate (Polysorbate 80), polyoxyethylene sorbitan monolaurate (Polysorbate 20), Cremophor EL (BASF), Cremophor RH40 (BASF), Poloxamer 118, and Solutol HS-15 (BASF). Following dilution, the solubility of the drug was measured by HPLC.
Excess 4-iodo-3-nitrobenzamide was equilibrated overnight (>16 hr) at 25° C. in solutions of purified water containing various co-solvents including ethanol, glycofurol, glycerin formal, benzyl alcohol, N,N, dimethylacetamide (DMA), polyethylene glycol (PEG) 400, and propylene glycol. Following dilution, the solubility of the drug was measured by HPLC.
Excess 4-iodo-3-nitrobenzamide was equilibrated overnight (>16 hr) at 25° C. in solutions in purified water containing mixtures of solubilizers. Following dilution, the solubility of the drug was measured by HPLC.

Compound: NC(=O)c1ccc(I)c([N+](=O)[O-])c1 [BA, 4-iodo-3-nitrobenzamide]
- solubility (30% Solutol HS 15 in purified water, 25 °C, aqueous with cosolvent or surfactant or cyclodextrin, Solutol HS 15 30%, 25° C., read-out: Solubility): 7460 µg/mL (≈ 25.5 mM)
- solubility (40% HPBCD in purified water, 25 °C, aqueous with cosolvent or surfactant or cyclodextrin, HPBCD 40% in purified water, 25° C., read-out: Solubility): 12800 µg/mL (≈ 43.7 mM)
- solubility (50% PEG 400 in purified water, 25 °C, aqueous with cosolvent or surfactant or cyclodextrin, PEG 400 50%, 25° C., read-out: Solubility): 7660 µg/mL (≈ 26.2 mM)
- Enhancement (50% Polysorbate 20/50% EtOH): 89.6
- solubility (50% Polysorbate 20/50% EtOH, 25 °C, organic solvent or mixture, 50% Polysorbate 20/50% EtOH, 25° C., read-out: Solubility): 16300 µg/mL (≈ 55.9 mM)
- Enhancement (50% Polysorbate 80/50% EtOH): 102.2
- solubility (50% Polysorbate 80/50% EtOH, 25 °C, organic solvent or mixture, 50% Polysorbate 80/50% EtOH, 25° C., read-out: Solubility): 18600 µg/mL (≈ 63.7 mM)
- solubility (50% ethanol in purified water, 25 °C, aqueous with cosolvent or surfactant or cyclodextrin, Ethanol 50%, 25° C., read-out: Solubility): 5720 µg/mL (≈ 19.6 mM)
- solubility (50% glycerin formal in purified water, 25 °C, aqueous with cosolvent or surfactant or cyclodextrin, Glycerin Formal 50%, 25° C., read-out: Solubility): 3450 µg/mL (≈ 11.8 mM)
- solubility (50% glycofurol in purified water, 25 °C, aqueous with cosolvent or surfactant or cyclodextrin, Glycofurol 50%, 25° C., read-out: Solubility): 9850 µg/mL (≈ 33.7 mM)
- solubility (50% propylene glycol in purified water, 25 °C, aqueous with cosolvent or surfactant or cyclodextrin, Propylene glycol 50%, 25° C., read-out: Solubility): 2240 µg/mL (≈ 7.67 mM)
- solubility (100% DMA (N,N-dimethylacetamide), 25 °C, organic solvent or mixture, DMA 100%, 25° C., read-out: Solubility): 71500 µg/mL (≈ 245 mM)
- solubility (100% Polysorbate 20, 25 °C, organic solvent or mixture, Polysorbate 20 100%, 25° C., read-out: Solubility): 10800 µg/mL (≈ 37.2 mM)
- solubility (100% Polysorbate 80, 25 °C, organic solvent or mixture, Polysorbate 80 100%, 25° C., read-out: Solubility): 16900 µg/mL (≈ 57.8 mM)
- solubility (100% benzyl alcohol, 25 °C, organic solvent or mixture, Benzyl alcohol 100%, 25° C., read-out: Solubility): 15500 µg/mL (≈ 53.1 mM)
- solubility (100% ethanol, 25 °C, organic solvent or mixture, Ethanol 100%, 25° C., read-out: Solubility): 14100 µg/mL (≈ 48.1 mM)
- solubility (100% glycerin formal, 25 °C, organic solvent or mixture, Glycerin Formal 100%, 25° C., read-out: Solubility): 15100 µg/mL (≈ 51.8 mM)
- solubility (100% glycofurol, 25 °C, organic solvent or mixture, Glycofurol 100%, 25° C., read-out: Solubility): 15000 µg/mL (≈ 51.3 mM)
- Enhancement (Benzyl alcohol 100%): 85.3
- Enhancement (Cremophor EL 10%): 19.2
- Enhancement (Cremophor RH40 10%): 18.5
- Enhancement (DMA 5%): 7.6
- Enhancement (DMA 100%): 392.6
- Enhancement (Ethanol 50%): 31.4
- Enhancement (Ethanol 100%): 77.2
- Enhancement (Glycerin Formal 50%): 19.0
- Enhancement (Glycerin Formal 100%): 83.2
- Enhancement (Glycofurol 50%): 54.1
- Enhancement (Glycofurol 100%): 82.3
- Enhancement (HPBCD 10%, vs no solubilizer): 26.7
- Enhancement (HPBCD 20%, vs no solubilizer): 54.8
- Enhancement (HPBCD 25%, vs no solubilizer): 63.0
- Enhancement (HPBCD 40%, vs no solubilizer): 70.2
- Enhancement (HPGCD 25%, vs no solubilizer): 1.5
- Enhancement (PEG 400 50%): 42.1
- Enhancement (Poloxamer 118 10%): 2.4
- Enhancement (Polysorbate 20 10%): 20.1
- Enhancement (Polysorbate 20 100%): 59.6
- Enhancement (Polysorbate 80 10%): 17.2
- Enhancement (Polysorbate 80 100%): 92.8
- Enhancement (Propylene glycol 50%): 12.3
- Enhancement (SBEBCD 25%, vs no solubilizer): 60.6
- Enhancement (Solubilizer None 0%): 1.0
- Enhancement (Solutol HS 15 25%): 36.0
- Enhancement (Solutol HS 15 30%): 41.0
- solubility (purified water containing mixtures of solubilizers, 25 °C, aqueous with cosolvent or surfactant or cyclodextrin, 5% Polysorbate 80/10% EtOH/40% PEG 400, 25° C., read-out: Solubility): 1230 µg/mL (≈ 4.21 mM)
- solubility (purified water containing mixtures of solubilizers, 25 °C, aqueous with cosolvent or surfactant or cyclodextrin, 10% EtOH/10% Polysorbate 80, 25° C., read-out: Solubility): 2300 µg/mL (≈ 7.88 mM)
- solubility (purified water containing mixtures of solubilizers, 25 °C, aqueous with cosolvent or surfactant or cyclodextrin, 10% EtOH/40% PEG 400, 25° C., read-out: Solubility): 3420 µg/mL (≈ 11.7 mM)
- solubility (purified water containing mixtures of solubilizers, 25 °C, aqueous with cosolvent or surfactant or cyclodextrin, 10% EtOH/40% PEG 400,/5% Benzyl Alcohol, 25° C., read-out: Solubility): 3110 µg/mL (≈ 10.7 mM)
- solubility (purified water containing mixtures of solubilizers, 25 °C, aqueous with cosolvent or surfactant or cyclodextrin, 10% glycofurol, 40% PEG 400, 25° C., read-out: Solubility): 6120 µg/mL (≈ 21 mM)
- solubility (purified water, 25 °C, water, Purified Water, 25° C., read-out: Solubility): 182 µg/mL (≈ 0.623 mM)
- solubility (water without solubilizer, 25 °C, water, water, no solubilizer, summary of Table 1, read-out: Solubility in water without any solubilizer): ≤ 200 µg/mL
